Data reported in patent US6770020B2 (priority 2001, dated 2004).

How the values were obtained:
[1] = cited from earlier work
LD50 in rats = type: in vivo; conditions: 70 kg human, assuming a similar LD50 in man
[2] = system: human glioblastoma cells (TB 10); assay: ICP-MS Gd uptake by glioblastoma cell cultures exposed to Gd-DTPA; conditions: for cellular Gd concentration: 10 mg/ml Gd-DTPA
[3] = system: human glioblastoma cells (TB 10); assay: Cell survival after thermal neutron irradiation of Gd-DTPA-exposed cultures; type: cell-based; conditions: for cell death after neutron irradiation: FIG. 5
Description: 5) For neutron bombardment, two series of cell cultures (each one in duplicate) from different passages were plated in plastic “NUNC”-brand flasks (Nalge Nunc International, Rochester, N.Y.) (NUNCLON, 25 cm^2culture area) at a density of 1×10^4 cells/cm^2 and exposed to no Gd-DTPA, 1 mg/ml, 5 mg/ml, or 10 mg/ml GdDTPA, for 72 hours, beginning 24 hours after plating. At the end of the exposure period, the growth media were removed and the flasks filled with Puck's modified saline, in which the cells remained for two hours before neutron bombardment. The cells were then irradiated for one hour under a thermal neutron flux of 3×10^8 n/cm^2s (nominal power 5 kW), at the ENEA's (Ente per le Nuove Tecnologie, L'Energia e L'Ambiente, Rome, Italy) TAPIRO fast Reactor. The fast neutron flux at the center of the irradiation chamber (20 cm^3 cube) was negligible, while the γ average dose was 3.2 Gy/h.^(20) Two hours later, the cells were detached from the plates, and cell survival was measured by cell counting and by the colorimetric MTT assay. The standard deviation of cell counting results on the four culture series was within 10%.
To verify if the 140 μg/ml of Gd retained by glioblastoma cells in the two- to four-hour washout time was still available as an efficient tumoricidal agent for NCT, the cultures were irradiated for one hour with thermal neutrons.
The data of FIG. 5 were obtained by direct living cell count and very similar results were obtained by the use of an MTT assay. As presented in FIG. 5, the control cultures (no Gd) were also affected by neutron irradiation, causing 20% of the cells to die. […] The serum-free environment insures that the DNA-repair cellular mechanism is slowed down, resulting (in principle) in decreased survival of the cells in which the Gd neutron capture reaction induced DNA damage. The 20% cell killing observed in cells not exposed to Gd provides an evaluation of the extent of this phenomenon.

[4] = system: human glioblastoma cells (TB 10); assay: MEPHISTO x-ray spectromicroscopy, Gd in nucleus vs. cytoplasm; type: cell-based; conditions: 10 mg/ml
Description: 1) For spectromicroscopy experiments, two series of cell cultures from different passages were prepared, in which 5×10^4 cells/cm^2 were plated in 35 mm plastic Petri dishes, each containing 4 to 5 gold-plated stainless steel substrates (5 mm diameter). The Gd exposure concentration was 10 mg/ml and the exposure times were 0 to 72 hours. At the end of the exposure periods, all dishes were carefully washed three times with phosphate buffered saline (PBS) to remove all unbound Gd-DTPA, fixed in 4% paraformaldheyde in PBS for 20 minutes, and then washed in Milii Q water. The samples were then air-dried at room temperature and etched by exposure to UV light from a low-pressure mercury lamp in the presence of ozone. UV/O3 etching selectively removes carbon and nitrogen from the cells without architectural distortion, thereby preserving the micro localization of all other elements.^(18,19) In the present study, etching was employed to reveal the local (i.e., nuclear) concentration of Gd which would otherwise not be detectable with x-ray absorption spectroscopy. The cell cultures were etched for 116 hours, at a distance of 5 mm from the UV lamp.
Microchemical analysis of the etched cell cultures was performed with the custom-built MEPHISTO (Microscope á Emission de PHotoélectrons par Illumination Synchrotronique de Type Onduleur) X-ray photoelectron emission microscope (X-PEEM), which uses an electron optics system (SpectroMicroTech, Orlando, Fla., USA) to form a magnified image of the photoelectrons emitted by a specimen under soft x-ray illumination. The image magnification is continuously variable up to 8000x, and the optimum lateral resolution is 20 nm^(15). The image pixel intensity (corresponding to total photoelectron yield, per unit area, per unit time) is recorded as a function of photon energy. […] The position and line-shape of spectral features provide element identification and chemical state information. Spectra can be acquired simultaneously from regions selected on the real time image of the sample surface, and the probed depth is on the order of 100 Å. For this work, the MEPHISTO X-PEEM was mounted on the HERMON beamline of the University of Wisconsin-Madison Synchrotron Radiation Center (Stoughton, Wis.).
MEPHISTO micrographs acquired at a specific photon energy were processed in Adobe Photoshop 5.0 software for Macintosh to enhance the contrast and add a scale bar. […]
A comparison of ICP-MS and MEPHISTO data, determines the calibration of the MEPHISTO analysis, and therefore quantitative information on the Gd concentration at the microscopic level. […] These factors were derived from the matching of MEPHISTO data from whole cells to the ICP-MS cell-bulk data, so that they quantitatively overlap. […]

In the case of `O=C([O-])CN(CCN(CC(=O)[O-])CC(=O)O)CCN(CC(=O)[O-])CC(=O)O.[Gd+3]` [Gd-DTPA, gadolinium diethylene triamine pentaacetic acid], the dose eliminated renally ([1]; 6 hours post-injection in man, average) is given as “about 83%”, the “dose found in the urine” value ([1]; 5 days post-injection in man) is given as “approximately 91%” and the “dose dependence of pharmacokinetics” value ([1]; humans) is given as “independent of the dose”. For the same compound, the “half life in the blood” value ([1]; in vivo) was “around 30 minutes”, the “amount injected for a 50% chance of killing” value (LD50 in rats) was “more than 850 g” and the “cellular Gd concentration” value ([2]; 120-hour exposure (maximum)) was 600 µg/mL. The “cellular Gd concentration” value ([2]; after 24 hours) was “more than 250 μg/ml”, the “cellular Gd concentration vs. exposure time” value ([2]; 10 mg/ml, up to 120 hours, FIG. 1) was “increases with the exposure time” and the “concentration of uptaken Gd vs. exposure concentration” value ([2]; 1 to 25 mg/ml Gd-DTPA, 72 hours, FIG. 3) was “increases with the exposure concentration”. The “maximum cellular concentration relative to the 250 μg/ml recommended for GdNCT” value ([2]; 120-hour exposure) was 2.4 times, the “cell death after Gd exposure followed by thermal neutrons” value ([3]; 140 μg/ml Gd retained after two hours in physiological solution, 1 hour thermal neutrons) was 70% and the “cell inactivation by Gd plus thermal neutrons vs. thermal neutrons alone” value ([3]; 70% vs. 20% killing) was 3.5 times. The “cell death after neutron irradiation” value ([3]; exposure 1 mg/ml Gd-DTPA 72 hours) was “not sufficient to induce consistent cell death”, the “cell death after neutron irradiation” value ([3]; exposure 10 and 5 mg/ml Gd-DTPA 72 hours) was “evident and reproducible cell death” and the “Ratio: Gd nucleus/Gd cytoplasm” value ([4]; exposure time 6 hrs) was 1.6. For the same compound, the “Ratio: Gd nucleus/Gd cytoplasm” value ([4]; exposure time 24 hrs) was 2.1, the “Ratio: Gd nucleus/Gd cytoplasm” value ([4]; exposure time 48 hrs) was 1.0 and the “Ratio: Gd nucleus/Gd cytoplasm” value ([4]; exposure time 72 hrs) was 1.3.
